The source made the active and inactive calls.
Legend:
HepG2 [1] = assay: Anti-NAFLD activity in palmitic acid human HepG2 NAFLD cell model assessed as increase in lipid droplet level at 5 uM compound administrated as copper complex measured at 24 hrs by Oil Red O staining based assay relative to control; type: functional
HepG2 [2] = assay: Anti-NAFLD activity in palmitic acid human HepG2 NAFLD cell model assessed as upregulation of PRDX1 expression at 0.5 uM incubated for 24 hrs in presence of CuCl2 by mRNA sequencing analysis; type: functional, cell-based
HepG2 [3] = assay: Anti-NAFLD activity in palmitic acid human HepG2 NAFLD cell model assessed as upregulation of MT1X expression at 0.5 uM incubated for 24 hrs in presence of CuCl2 by mRNA sequencing analysis; type: functional, cell-based
HepG2 [4] = assay: Anti-NAFLD activity in palmitic acid human HepG2 NAFLD cell model assessed as downregulation of IL6 expression at 0.5 uM incubated for 24 hrs in presence of CuCl2 by mRNA sequencing analysis; type: functional, cell-based
[5] = Induction of copper transporting activity in human HeLa cells assessed as fold increase in intracellular copper levels at 2 uM incubated for 4 hrs by ICP-MS analysis; type: functional
Mus musculus [6] = assay: Anti-NAFLD activity in high-fat diet-induced male C57BL/6J mouse model assessed as increase in malic acid level at 125 mg/kg, po compound administrated as copper complex measured for 10 weeks by LC-MS/MS analysis; type: functional, organism-based
[7] = Toxicity in male C57BL/6 mouse assessed as kidney lesion at 125 mg/kg, po compound administrated as copper complex measured for 10 weeks; type: organism-based; settings: in vivo, 1680 h
HepG2 [8] = assay: Anti-NAFLD activity in palmitic acid human HepG2 NAFLD cell model assessed as upregulation of NQO1 expression at 0.5 uM incubated for 24 hrs in presence of CuCl2 by mRNA sequencing analysis; type: functional, cell-based
HepG2 [9] = assay: Anti-NAFLD activity in palmitic acid human HepG2 NAFLD cell model assessed as upregulation of CAT expression at 0.5 uM incubated for 24 hrs in presence of CuCl2 by mRNA sequencing analysis; type: functional, cell-based
HepG2 [10] = assay: Anti-NAFLD activity in palmitic acid human HepG2 NAFLD cell model assessed as cell viability at 0.1 to 0.5 uM compound administrated as copper complex measured at 24 hrs by MTT assay; type: functional, cell-based; settings: dose 0.1-0.5 µM
Hepatocyte [11] = assay: Cytotoxicity against mouse Hepatocyte assessed as cell viability at 0.1 to 5 uM measured at 24 hrs by MTT assay; type: toxicity, cell-based; settings: hepatocytes, dose 0.1-5 µM
[12] = Toxicity in male C57BL/6 mouse assessed as change in body weight at 125 mg/kg, po compound administrated as copper complex measured for 10 weeks; type: organism-based; settings: in vivo, 1680 h
Mus musculus [13] = assay: Anti-NAFLD activity in high-fat diet-induced male C57BL/6J mouse model assessed as increase in Ru5P level in liver at 125 mg/kg, po compound administrated as copper complex measured for 10 weeks by LC-MS/MS analysis; type: functional, organism-based
HepG2 [14] = assay: Anti-NAFLD activity in palmitic acid human HepG2 NAFLD cell model assessed as upregulation of CYP4F3 expression at 0.5 uM incubated for 24 hrs in presence of CuCl2 by mRNA sequencing analysis; type: functional, cell-based
HeLa = assay: Induction of copper transporting activity in human HeLa cells assessed as increase in intracellular copper levels at 0.02 to 20 uM by ICP-MS analysis; type: functional, cell-based; settings: dose 0.02-20 µM, time <= 24.0 hrs
Hepatocyte [15] = assay: Cytotoxicity against mouse Hepatocyte assessed as cell viability at 0.1 to 5 uM compound administrated as copper complex measured at 24 hrs by MTT assay; type: toxicity, cell-based; settings: hepatocytes, dose 0.1-5 µM
HepG2 [16] = assay: Anti-NAFLD activity in palmitic acid human HepG2 NAFLD cell model assessed as downregulation of STAT3 expression at 0.5 uM incubated for 24 hrs in presence of CuCl2 by mRNA sequencing analysis; type: functional, cell-based
[17] = Photophysical property of the compound assessed as fluorescence quantum yield; type: physicochemical
HepG2 [18] = assay: Anti-NAFLD activity in palmitic acid human HepG2 NAFLD cell model assessed as effect on SLC48A1 expression at 0.5 uM incubated for 24 hrs in presence of CuCl2 by mRNA sequencing analysis; type: functional, cell-based
Mus musculus [19] = assay: Anti-NAFLD activity in high-fat diet-induced male C57BL/6J mouse model assessed as decrease in 3-phosphoglycerate at 125 mg/kg, po compound administrated as copper complex measured for 10 weeks by LC-MS/MS analysis; type: functional, organism-based
Mus musculus [20] = assay: Anti-NAFLD activity in high-fat diet-induced male C57BL/6J mouse model assessed as increase in F6P level in liver at 125 mg/kg, po compound administrated as copper complex measured for 10 weeks by LC-MS/MS analysis; type: functional, organism-based
[21] = Toxicity in male C57BL/6 mouse assessed as heart lesion at 125 mg/kg, po compound administrated as copper complex measured for 10 weeks; type: organism-based; settings: in vivo, 1680 h
HepG2 [22] = assay: Anti-NAFLD activity in palmitic acid human HepG2 NAFLD cell model assessed as upregulation of TXN expression at 0.5 uM incubated for 24 hrs in presence of CuCl2 by mRNA sequencing analysis; type: functional, cell-based
HepG2 [23] = assay: Anti-NAFLD activity in palmitic acid human HepG2 NAFLD cell model assessed as upregulation of fatty acid metabolism related genes at 0.5 uM incubated for 24 hrs in presence of CuCl2 by mRNA sequencing analysis; type: functional, cell-based
[24] = Stability of the compound in cell culture medium containing 10% fetal bovine serum in presence of cysteine by UV-Vis spectrophotometer analysis; type: physicochemical, cell-free; settings: cattle
HepG2 [25] = assay: Cytotoxicity against human HepG2 cells assessed as cell viability at 0.1 to 5 uM compound administrated as copper complex measured at 24 hrs by MTT assay; type: functional, cell-based; settings: dose 0.1-5 µM
[26] = Stability of compound in PBS buffer in presence of histidine by UV-Vis spectrophotometer analysis; type: physicochemical
Mus musculus [27] = assay: Anti-NAFLD activity in high-fat diet-induced male C57BL/6J mouse model assessed as reduction in IL-6 level in liver at 125 mg/kg, po compound administrated as copper complex measured for 10 weeks; type: functional, organism-based
HepG2 [28] = assay: Anti-NAFLD activity in palmitic acid human HepG2 NAFLD cell model assessed as upregulation of MT1E expression at 0.5 uM incubated for 24 hrs in presence of CuCl2 by mRNA sequencing analysis; type: functional, cell-based
Mus musculus [29] = assay: Anti-NAFLD activity in high-fat diet-induced male C57BL/6J mouse model assessed as increase in lipid droplets accumulation in liver at 125 mg/kg, po compound administrated as copper complex measured for 10 weeks by oil red O staining based analysis; type: functional, organism-based
Mus musculus [30] = assay: Anti-NAFLD activity in high-fat diet-induced male C57BL/6J mouse model assessed as increase in lactate level at 125 mg/kg, po compound administrated as copper complex measured for 10 weeks by LC-MS/MS analysis; type: functional, organism-based
Mus musculus [31] = assay: Anti-NAFLD activity in high-fat diet-induced male C57BL/6J mouse model assessed as increase in copper level in liver at 125 mg/kg, po compound administrated as copper complex measured for 10 weeks by ICP-MS analysis; type: functional, organism-based

O=c1c(O)c(-c2ccc3cccc(O)c3n2)oc2ccccc12
Stable: Stability [24] | Stability [26]
31%: Activity (HepG2 [1])
active: Activity (HepG2 [2]) | Activity (HepG2 [3]) | Activity (HepG2 [4]) | Activity (Mus musculus [6]) | Activity (HepG2 [8]) | Activity (HepG2 [9]) | Activity (HepG2 [10]) | Activity (Mus musculus [13]) | Activity (HepG2 [14]) | Activity (HeLa) Time-dependent-effect | Activity (HepG2 [16]) | Activity (HepG2 [18]) | Activity (Mus musculus [19]) | Activity (Mus musculus [20]) | Activity (HepG2 [22]) | Activity (HepG2 [23]) | Activity (HepG2 [25]) | Activity (Mus musculus [27]) | Activity (HepG2 [28]) | Activity (Mus musculus [29]) | Activity (Mus musculus [30]) | Activity (Mus musculus [31])
0.199: Activity [17]
~5: fold change (FC) [5]
Non-toxic: Activity [7] | Activity (Hepatocyte [11]) | Activity [12] | Activity (Hepatocyte [15]) | Activity [21]

— ChEMBL document CHEMBL6115034, “Pseudonatural Flavonols as Novel Copper Ionophores for NAFLD Intervention via Synergistic Copper Delivery and Flavonoid Activity” (J Med Chem, 2025)
